According to the METLIN SMRT retention time set (Domingo-Almenara et al. 2019):

experiment: gradient 5% acetonitrile 3 min, to 50% in 2 min, to 85% in 15 min, held 3 min, 100 µL/min; settings: column: Zorbax Extend-C18 2.1 x 50 mm; eluents: water / acetonitrile, 0.1% formic acid
Procedure, shortened: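 A Zorbax Extend-C18 column (2.1 × 50 mm, 1.8 μm) run at 100 μL/min with water and acetonitrile, both containing 0.1% formic acid, separated mixtures of ~100 pure standards. The HPLC was coupled to a quadrupole time-of-flight mass spectrometer operated in positive and negative ionization mode, with dead and dwell volumes of 40 μL and 900 μL. Each retention time was taken from a computationally picked adduct peak that was then manually inspected.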

Row | RP-LC retention time [s] | SMILES
1 | 641 | CCCNCc1ccc(-c2ccccc2)o1
2 | 581 | O=C1CCCc2cc(S(=O)(=O)NCCCN3CCN(Cc4ccccc4)CC3)ccc2N1
3 | 566 | O=C(Cc1cc(-c2ccccc2)on1)NCCN1CCOCC1
4 | 644 | COCCNc1nc(-c2ccc(OC)cc2)nc2ccccc12
5 | 1060 | CC1CCCCN1S(=O)(=O)c1cc(-c2nnc(C3CCCC3)o2)co1 (stereo unspecified)
6 | 627 | CC(=O)N1CCN(C(=O)c2cccn2CC(=O)N2CCc3ccccc32)CC1
7 | 642 | O=C(NC1CCCCC1)c1ccn[nH]1
8 | 934 | Cc1cccc(-c2c3c(=O)n(C)c(=O)n(C)c3c3n2CCOC3c2ccco2)c1 (stereo unspecified)
9 | 827 | CC(C)c1nc2nccc(-c3ccccc3)n2n1
10 | 802 | Cc1nn(-c2ccc(Nc3ccc(NC(=O)c4ccccc4F)cc3)nn2)c(C)c1C
11 | 733 | O=C(Nc1c(-c2ccc(F)cc2)nc2ccccn12)c1ccc(Cl)c([N+](=O)[O-])c1
12 | 660 | O=C(Cc1ccc(Cl)cc1)NCC(=O)Nc1nc2ccccc2[nH]1
13 | 590 | COCCNC(=O)CCc1c(-c2ccc(Cl)cc2)nc2ccccn12
14 | 858 | COc1ccc(-c2noc(C3CCCN3C(=O)Nc3cccc(C)c3C)n2)cc1 (stereo unspecified)
15 | 736 | CCc1onc(C)c1C1CCCN1C(=O)c1ccc(F)cc1 (stereo unspecified)
16 | 688 | O=C(CC1CCCCC1)Nc1ccc(-c2cn3cccnc3n2)cc1
17 | 664 | Cc1cc(C(=O)NC2CC2)c2cc(Br)ccc2n1
18 | 633 | Cc1noc(C)c1CCC(=O)NCCOc1ccc2nnc(-c3cccc(F)c3)n2n1
19 | 992 | Cc1ccc(-c2csc(NC(=O)COc3cc(C)ccc3C(C)C)n2)cc1
20 | 784 | COc1ccc(NC(=O)C(=O)c2cccn2C)cc1OC
21 | 871 | COc1cc(OC)c(NC(=O)Cn2c(=O)n(-c3cccc(C)c3)c(=O)c3c2cc(C)n3C)cc1Cl
22 | 748 | COc1ccc(OC)c2sc(NC(=O)c3cc(C)on3)nc12
23 | 827 | Clc1cccc(Cc2nc(-c3ccc4nncn4c3)no2)c1

Row | RP-LC retention time [s] | SMILES
24 | 726 | Cc1nc(-c2cnccn2)nc2c1CCC(=O)N2Cc1ccccc1F
25 | 764 | Cn1cc(CCNS(=O)(=O)c2ccccc2C(F)(F)F)c2cccnc21
26 | 655 | CN1C2CCC1CC(NC(=O)c1nn(C)c3ccccc13)C2 (stereo unspecified)
27 | 1100 | Cc1cccc(-n2c(=O)c3sccc3n(Cc3nc(-c4ccc(F)c(Cl)c4)no3)c2=O)c1
28 | 825 | C=CC(=O)Nc1ccc2ncnc(Nc3ccc(OCc4cccc(F)c4)c(Cl)c3)c2c1
29 | 694 | Cn1cc(-c2ccc3nnc(C(F)(F)c4ccc5ncccc5c4)n3n2)cn1
30 | 857 | Cc1cc(C)cc(N2CCC(NC(=O)c3ccccc3)C2=O)c1 (stereo unspecified)
31 | 1020 | CCOC(=O)COC(=O)c1cn(-c2cccc(F)c2)c(=O)c2ccccc12
32 | 729 | Cc1nc(C)c(C(=O)N2CC(n3cc(COc4ccc(F)cc4)nn3)C2)s1
33 | 577 | CCCCN(C)C(=O)CC1CCN(c2ccnc(NC)n2)CC1
34 | 1050 | Cc1ccccc1Nc1c(-c2ccccc2O)nc2ccc(Br)cn12
35 | 715 | Cc1ccc(S(=O)(=O)N2CCC(CCNC(=O)NCCC(C)C)CC2)cc1
36 | 1090 | Cc1c(-c2noc(-c3cccc(F)c3)n2)nnn1-c1ccccc1
37 | 921 | Cc1cc2c(c(=O)n(-c3ccc(F)cc3)c(=O)n2CC(=O)Nc2cccc(C(C)C)c2)n1C
38 | 1150 | Brc1ccc(Nc2nc(-c3ccc4c(c3)OCO4)cs2)nc1
39 | 799 | O=C(NCCc1ccccc1)Nc1cnn(-c2ncc(N3CCCCC3)cn2)c1
40 | 1280 | Brc1ccc(-c2nnc(SCCCCOc3ccccc3)o2)cc1
41 | 1090 | CCCc1nc(-c2ccccc2)oc1CC(=O)N1CCN(c2ccccc2F)CC1
42 | 744 | Cc1noc(Cn2cnc3c4ccccc4n(CC(=O)NC4CCCC4)c3c2=O)n1
43 | 809 | O=C(CC(c1ccccc1)c1ccccc1)NCC(O)c1cccs1 (stereo unspecified)
44 | 1040 | CC1Oc2ccc(-c3csc(NC(=O)C4CCCCC4)n3)cc2N(C)C1=O (stereo unspecified)
45 | 685 | CCn1c(CCNC(=O)c2ccc3ccccc3n2)nc2cccnc21
46 | 630 | Cc1cc(NC(=O)C2CCN(C(=O)c3ccco3)CC2)no1

Row | RP-LC retention time [s] | SMILES
47 | 911 | O=C(Cn1c(=O)c2cccn2c2ccc(F)cc21)N1CCc2ccccc2C1
48 | 646 | CCOC(=O)C1CCN(c2nc(=O)[nH]c3ccccc23)CC1
49 | 652 | O=C(CCC1CCCC1)N1CCN(C(=O)c2cc(-c3cccnc3)n[nH]2)CC1
50 | 978 | O=C(Cc1csc(SCc2ccc(Br)cc2)n1)NCc1cccs1
51 | 962 | CCC(CC)C(=O)Nc1nc(-c2ccc3c(c2)N(C)C(=O)CO3)c(C)s1
52 | 1120 | O=C(Cn1cccc1-c1nnc(-c2ccccc2)o1)N1CCN(c2cccc(Cl)c2)CC1
53 | 744 | COc1cc2[nH]c3c(SCC(=O)N4CCc5ccccc5C4)ncnc3c2cc1OC
54 | 711 | Cc1ccnc(NS(=O)(=O)c2ccc(NC(=O)C3COc4ccccc4O3)cc2)n1 (stereo unspecified)
55 | 985 | CCOc1ccc(/C=C/C(=O)Nc2nc(-c3ccc4c(c3)N(C)C(=O)CO4)cs2)cc1OC
56 | 582 | O=c1ccc(-c2ccncc2)nn1CCCNS(=O)(=O)/C=C/c1ccccc1
57 | 910 | Cc1ccc(S(=O)(=O)N2CCC(n3c(-c4ccoc4)nc4cccnc43)C2)cc1F (stereo unspecified)
58 | 847 | Cc1ccc(C)c(C(=O)N2CCN(c3cc(-c4cccs4)[nH]n3)CC2)c1
59 | 715 | O=C(Cc1ccccc1Cl)NCCn1cnc(-c2ccccc2)cc1=O
60 | 941 | CN(CCc1noc(COc2cccc(C(F)(F)F)c2)n1)C(=O)c1cccs1
61 | 726 | Cc1occc1C(=O)N1CC(F)(F)C[C@H]1c1nc(C2CC2)no1
62 | 1320 | Cc1ccc(-c2cc3c(=O)n(Cc4nc(-c5cccc(Br)c5)no4)ncn3n2)c(C)c1
63 | 609 | CN1C(=O)c2cccn2CC1C(=O)N1CCN(c2ncccn2)CC1 (stereo unspecified)
64 | 595 | CN(C)C[C@@H]1CN(c2ncccn2)C[C@H]1NC(=O)c1ccc2ccccc2n1
65 | 869 | Cc1ccccc1NC(=O)C1C(=O)NC2(C)CC1c1ccccc1O2 (stereo unspecified)
66 | 706 | Cc1ccc(NC(=O)C2CCN(S(=O)(=O)c3cn(C)cn3)CC2)c(C)c1
67 | 661 | Cc1cccc(NC(=O)NCC(c2cccnc2)c2c[nH]c3ccccc23)c1C (stereo unspecified)
68 | 548 | CCc1cc(N2CCN(C(=O)c3ccc(F)cc3)CC2)nc2nncn12
69 | 724 | CCOCCCNC(=O)c1cc2n(n1)CCCN(Cc1ccccc1)C2=O

Row | RP-LC retention time [s] | SMILES
70 | 769 | Cc1cc(NC(=O)C2CCCN(c3cnc4nccnc4c3)C2)ccc1F (stereo unspecified)
71 | 806 | Cc1noc(-c2ccc(=O)n(Cc3cccc(C(F)(F)F)c3)c2)n1
72 | 1080 | O=C(Cn1ccn2nc(-c3ccc(Cl)cc3)cc2c1=O)N1CCCc2ccccc21
73 | 677 | Cc1cc(C(=O)N2CCC3(CC2)CC(C)(O)CCO3)c(C)o1 (stereo unspecified)
74 | 997 | Cc1ccc(C(=O)N2CCc3cn(C)c4cccc(c34)C2)cc1F
75 | 1180 | CC1CCCN(c2nn(CC(=O)Nc3cc(F)cc(F)c3)c(=O)c3ccccc23)C1 (stereo unspecified)
76 | 775 | Cc1cc(NC(=O)c2cc(Cl)ccc2Cl)n(C(C)C)n1
77 | 877 | Cc1ccc(S(=O)(=O)N2CCC(CCNC(=O)NCC(C)C)CC2)cc1
78 | 570 | Cc1ccnc(NC(=O)C2CCCN(c3cc(=O)n(C)c(=O)n3C)C2)c1 (stereo unspecified)
79 | 823 | O=C(Nc1ccc(F)cc1F)NC1CCN(c2ccc(F)cc2)C1=O (stereo unspecified)
80 | 617 | O=C(Nc1cccc(C(F)(F)F)c1)NC1CCN(c2cc(N3CCCC3)cnn2)C1 (stereo unspecified)
81 | 555 | O=C(c1ccco1)N1CCC(O)(c2ccccc2)[C@H](N2CCCC2)C1 (stereo partly specified)
82 | 958 | Cc1ccc(S(=O)(=O)N2C(=O)CCC2C(=O)NC2CCC(C)CC2)cc1 (stereo unspecified)
83 | 800 | Cc1nc(Nc2ccccc2)sc1C(=O)NCC1CC1
84 | 913 | COc1ccc(C2(C(=O)N3CCC(Oc4ccc(-c5noc(C)n5)cc4)C3)CC2)cc1 (stereo unspecified)
85 | 996 | COc1cc(NC(=O)Cn2cnc3c(sc4nc(-c5ccccc5)ccc43)c2=O)cc(OC)c1
86 | 937 | CCCn1c(=O)sc2cc(S(=O)(=O)N3CCC(C(=O)N4CCCCCC4)CC3)ccc21
87 | 940 | Cc1ccc(-c2cn3c(CC(=O)Nc4ccc(Cl)cc4)csc3n2)cc1C
88 | 723 | COCc1c(C(=O)O)nnn1-c1ccc(F)c(F)c1
89 | 712 | COc1ccc(C(=O)Nc2ccc3c(c2)Sc2ncccc2C(=O)N3C)cc1OC
90 | 792 | Cn1ncc2c3ccccc3n(CC(=O)NCc3ccc4c(c3)OCO4)c2c1=O
91 | 739 | Clc1ccc2nnc(Cc3ccccc3)n2n1
